By GI50 is commonly meant the concentration that inhibits growth by half. High values mean lower sensitivity of the cells, low ones greater sensitivity of the cells. As a reminder, the ΔTm is the shift of the melting midpoint relative to a reference.

For one assay, the system named is MCF7. As to the kind of experiment: Cytotoxicity against human MCF7 cells assessed as cell growth at 50 uM after 48 hrs by Alamar Blue assay relative to control. The assay is classed as functional. The following applies: MCF7, 48 h, read-out: Activity. For orientation: Resazurin is reduced to fluorescent resorufin, in cell work by metabolically active cells.
The test system of a further assay is NCI-H460. As to the kind of experiment: Cytotoxicity against human NCI-H460 cells assessed as cell growth at 50 uM after 48 hrs by Alamar Blue assay relative to control. The assay is classed as functional. The note with it: NCI-H460, 48 h, read-out: Activity.
The subject of the next assay is SF-268. The assay can be described thus: Cytotoxicity against human SF268 cells assessed as cell growth at 50 uM after 48 hrs by Alamar Blue assay relative to control. The note with it: SF-268, 48 h, read-out: Activity. It counts as functional.
In a further assay the test system is A498. As to the kind of experiment: Growth inhibition of human A498 cells after 48 hrs by sulforhodamine B assay relative to control. The assay is classed as functional. The note with it: A498, 48 h. (In SRB staining, fixed cells bind dye roughly in proportion to their protein.)
In another assay the test system is NCI. The assay can be described thus: Growth inhibition of human NCI 60 cells after 48 hrs by sulforhodamine B assay relative to control. The assay is classed as functional.
In assay [1] the test system is DNA. The assay can be described thus: Binding affinity to calf thymus DNA at 20 uM after 4 hrs by thermal denaturation assay. It counts as nucleic-acid assay. The following applies: Bos taurus.
In assay [2] the test system is DNA. As to the kind of experiment: Binding affinity to calf thymus DNA at 20 uM after 18 hrs by thermal denaturation assay. The assay is classed as nucleic-acid assay. The note with it: Bos taurus.
In assay [3] the test system is DNA. As to the kind of experiment: Binding affinity to calf thymus DNA at 20 uM after 72 hrs by thermal denaturation assay. The assay is classed as nucleic-acid assay. The following applies: Bos taurus.

With `O=C1Nc2ccccc2C(=O)N2C=C(c3ccc(Cl)c(Cl)c3)C[C@@H]12`, the values for the growth at 50 µM in the assay with MCF7, with NCI-H460 and with SF-268 were 51%, 5% and 86%, respectively. The GI50 was above 50 µM in the assay on A498 and 46.8 µM with NCI. The ΔTm in the assay on DNA [1] was found to be 2.1 °C; with DNA [2], 2.2 °C; with DNA [3], 2.2 °C.
Take `O=C1Nc2ccccc2C(=O)N2C=C(c3ccccc3)C[C@@H]12`: the values for the ΔTm with DNA [1], in the assay on DNA [2] and in the assay on DNA [3] were 1.5 °C, 1.5 °C and 1.6 °C, respectively.
As to `O=C1Nc2ccccc2C(=O)N2C=C(c3cccc([N+](=O)[O-])c3)C[C@@H]12`, the ΔTm with DNA [1] was determined as 0.9 °C; with DNA [2], 1 °C; in the assay with DNA [3], 1 °C.
With `O=C1Nc2ccccc2C(=O)N2C=C(c3ccc(Br)cc3)C[C@@H]12`, the growth at 50 µM with MCF7 is 61%; in the assay with NCI-H460 it was 20%; in the assay on SF-268, 109%. The concentration for 50% growth inhibition (GI50) in the assay on A498 stood at 0.51 µM; in the assay on NCI, 7.41 µM. Also, the ΔTm in the assay on DNA [1] stood at 2 °C; with DNA [2], 2 °C; with DNA [3], 2.1 °C.
On to `O=C1Nc2ccccc2C(=O)N2C=C(c3cccc4ccccc34)C[C@@H]12`, for which the results for the growth at 50 µM in the assay on MCF7, with NCI-H460 and with SF-268 were 42%, 29% and 73%, respectively. The results for the GI50 in the assay with A498 and in the assay on NCI were 3.16 µM and 14.8 µM, respectively. For the same compound, the ΔTm with DNA [1] stood at 2.3 °C; in the assay on DNA [2], 2.3 °C; in the assay on DNA [3], 2.4 °C.
Turning to `Cc1ccc2c(c1O)NC(O)C1CC(/C=C/C(N)=O)=CN1C2=O` (stereo not drawn) [ANTHRAMYCIN], the GI50 in the assay with A498 is 0.195 µM; in the assay with NCI it was 0.029 µM.
As for `Nc1ccc(C2=CN3C(=O)c4ccccc4NC(=O)[C@@H]3C2)cc1`, the shift in melting temperature (ΔTm) in the assay on DNA [1], with DNA [2] and in the assay on DNA [3] was 1.1 °C throughout.
Consider `O=Cc1ccc(C2=CN3C(=O)c4ccccc4NC(=O)[C@@H]3C2)cc1`, for which the ΔTm with DNA [1] turned out to be 1.5 °C; in the assay on DNA [2], 1.4 °C; with DNA [3], 1.5 °C.

Source of the values: ChEMBL document CHEMBL1147843, “Synthesis of a novel C2-aryl pyrrolo[2,1-c][1,4]benzodiazepine-5,11-dione library: effect of C2-aryl substitution on cytotoxicity and non-covalent DNA binding” (2007).
